In data set [1] the target is T1, ATP-dependent translocase ABCB1 (Mus musculus, UniProt P21447). Briefly: TP_TRANSPORTER: increase in brain concentration in mdr1a(-/-) mouse. The following applies: in vivo. It is filed as functional, organism-based.
The target of data set [2] is ATP-dependent translocase ABCB1 (Homo sapiens, UniProt P08183). Description: TP_TRANSPORTER: transepithelial transport (basal to apical) in MDR1-expressing LLC-PK1 cells. The settings on record: pig. It is filed as functional, cell-based.
In data set [3] the target is T1, ATP-dependent translocase ABCB1. Description: TP_TRANSPORTER: transepithelial transport (basal to apical) in mdr1a-expressing LLC-PK1 cell. It is filed as functional, cell-based. The following applies: pig.

T1 sequence (P21447 whole entry): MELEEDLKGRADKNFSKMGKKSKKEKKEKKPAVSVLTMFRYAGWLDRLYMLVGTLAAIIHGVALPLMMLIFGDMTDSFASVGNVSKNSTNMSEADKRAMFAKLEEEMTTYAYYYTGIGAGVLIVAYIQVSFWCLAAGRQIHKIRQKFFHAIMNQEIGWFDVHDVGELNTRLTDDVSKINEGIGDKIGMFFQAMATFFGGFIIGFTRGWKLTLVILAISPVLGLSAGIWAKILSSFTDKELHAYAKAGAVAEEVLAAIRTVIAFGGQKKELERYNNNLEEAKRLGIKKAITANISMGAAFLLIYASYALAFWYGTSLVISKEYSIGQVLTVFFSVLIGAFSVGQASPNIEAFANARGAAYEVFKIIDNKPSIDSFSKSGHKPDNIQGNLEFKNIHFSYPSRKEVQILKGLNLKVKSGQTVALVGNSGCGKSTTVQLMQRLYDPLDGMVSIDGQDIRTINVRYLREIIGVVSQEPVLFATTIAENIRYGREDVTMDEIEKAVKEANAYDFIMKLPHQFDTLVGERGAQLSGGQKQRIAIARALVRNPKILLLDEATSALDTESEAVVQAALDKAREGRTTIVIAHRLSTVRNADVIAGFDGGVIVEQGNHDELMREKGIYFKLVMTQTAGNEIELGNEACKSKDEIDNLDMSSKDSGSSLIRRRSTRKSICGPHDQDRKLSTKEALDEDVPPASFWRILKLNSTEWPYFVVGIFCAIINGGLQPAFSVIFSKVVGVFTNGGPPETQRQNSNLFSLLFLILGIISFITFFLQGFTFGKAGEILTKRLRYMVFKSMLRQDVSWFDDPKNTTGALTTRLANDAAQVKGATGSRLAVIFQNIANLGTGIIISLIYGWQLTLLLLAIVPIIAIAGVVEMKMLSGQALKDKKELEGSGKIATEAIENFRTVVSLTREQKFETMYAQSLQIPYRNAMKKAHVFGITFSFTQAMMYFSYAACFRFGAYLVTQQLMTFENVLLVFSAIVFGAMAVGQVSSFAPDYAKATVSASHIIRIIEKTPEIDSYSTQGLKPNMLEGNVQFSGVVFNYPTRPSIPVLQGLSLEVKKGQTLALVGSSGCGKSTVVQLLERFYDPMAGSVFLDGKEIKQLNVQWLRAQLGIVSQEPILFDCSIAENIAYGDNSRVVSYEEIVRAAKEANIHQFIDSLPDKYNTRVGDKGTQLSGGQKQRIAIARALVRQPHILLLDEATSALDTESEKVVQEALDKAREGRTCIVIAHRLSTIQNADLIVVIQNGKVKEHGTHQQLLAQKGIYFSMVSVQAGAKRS
Chain of ATP-dependent translocase ABCB1 (Homo sapiens, UniProt P08183) (P08183 whole entry): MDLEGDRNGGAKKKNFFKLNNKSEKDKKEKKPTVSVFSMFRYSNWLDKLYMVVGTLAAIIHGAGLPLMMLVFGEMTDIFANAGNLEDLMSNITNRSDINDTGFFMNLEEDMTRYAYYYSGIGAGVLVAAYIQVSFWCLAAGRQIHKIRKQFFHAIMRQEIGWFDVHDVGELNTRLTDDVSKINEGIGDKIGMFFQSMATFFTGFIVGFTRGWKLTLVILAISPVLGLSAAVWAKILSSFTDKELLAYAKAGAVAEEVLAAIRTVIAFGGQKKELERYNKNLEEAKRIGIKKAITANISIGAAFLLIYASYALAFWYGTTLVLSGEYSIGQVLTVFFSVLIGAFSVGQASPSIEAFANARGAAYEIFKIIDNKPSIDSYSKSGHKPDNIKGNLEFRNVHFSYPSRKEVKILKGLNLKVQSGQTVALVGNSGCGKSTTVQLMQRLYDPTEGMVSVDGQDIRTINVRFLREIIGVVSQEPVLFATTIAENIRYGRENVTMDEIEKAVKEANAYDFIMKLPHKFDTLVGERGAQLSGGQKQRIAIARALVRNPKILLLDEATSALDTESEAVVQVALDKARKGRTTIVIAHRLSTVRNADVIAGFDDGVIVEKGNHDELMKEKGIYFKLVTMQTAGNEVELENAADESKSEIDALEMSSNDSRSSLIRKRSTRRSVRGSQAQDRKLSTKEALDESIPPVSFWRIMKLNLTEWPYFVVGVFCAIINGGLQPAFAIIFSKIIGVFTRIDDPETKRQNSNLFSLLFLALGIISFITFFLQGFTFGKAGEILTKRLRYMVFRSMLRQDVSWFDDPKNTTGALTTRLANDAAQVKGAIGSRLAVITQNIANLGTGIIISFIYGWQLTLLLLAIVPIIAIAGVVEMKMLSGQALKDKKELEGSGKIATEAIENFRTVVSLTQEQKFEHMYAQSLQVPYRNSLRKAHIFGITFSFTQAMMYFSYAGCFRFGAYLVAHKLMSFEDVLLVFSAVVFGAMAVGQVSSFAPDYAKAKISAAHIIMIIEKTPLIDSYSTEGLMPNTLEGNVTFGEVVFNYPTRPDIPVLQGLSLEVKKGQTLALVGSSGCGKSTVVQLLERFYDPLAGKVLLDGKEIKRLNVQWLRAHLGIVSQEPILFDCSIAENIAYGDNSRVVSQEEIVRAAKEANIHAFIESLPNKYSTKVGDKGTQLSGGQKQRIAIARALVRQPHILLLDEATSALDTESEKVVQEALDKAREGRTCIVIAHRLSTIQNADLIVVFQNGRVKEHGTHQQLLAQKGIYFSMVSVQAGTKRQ

As to `CN(C)C(=O)C(CCN1CCC(O)(c2ccc(Cl)cc2)CC1)(c1ccccc1)c1ccccc1` [LOPERAMIDE], the Activity result in data set [1], in data set [2] and in data set [3] was “substrate [+]” each time.

`Cc1nccn1CC1CCc2c(c3ccccc3n2C)C1=O` (stereo unspecified) [ONDANSETRON]: the Activity entry in data set [1] and in data set [3] was “substrate [+]” each time.

Take `O=C1NC(=O)C(c2ccccc2)(c2ccccc2)N1` [PHENYTOIN]: the Activity entry in data set [3] is “substrate [+]”.

These data come from ChEMBL document CHEMBL2074127, “P-glycoprotein in the blood-brain barrier of mice influences the brain penetration and pharmacological activity of many drugs” (J Clin Invest, 1996).
